Measured values as given in PubChem BioAssay (NCI).
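96-well plates; 48 h exposure; 5 concentrations. Endpoints by linear interpolation between flanking doses. Not reached: highest tested concentration assigned. At the TGI there is no net growth.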

How the values were obtained:
Assay in all cases: NCI anticancer screen, dose series, 48 h
NCI-H460 lung = tested on: NCI-H460 lung
UACC-257 melanoma = tested on: UACC-257 melanoma
A549 NSCLC = tested on: A549 NSCLC
NCI-H23 lung = tested on: NCI-H23 lung
K-562 leukemia = tested on: K-562 leukemia
SNB-19 CNS = tested on: SNB-19 CNS
MALME-3M melanoma = tested on: MALME-3M melanoma
M14 melanoma = tested on: M14 melanoma
RPMI-8226 leukemia = tested on: RPMI-8226 leukemia
M19-MEL melanoma = tested on: M19-MEL melanoma
SW-620 colon = tested on: SW-620 colon
SK-MEL-28 melanoma = tested on: SK-MEL-28 melanoma
TK-10 renal = tested on: TK-10 renal
LXFL 529 NSCLC = tested on: LXFL 529 NSCLC
SNB-78 CNS = tested on: SNB-78 CNS
XF 498 CNS = tested on: XF 498 CNS
SF-539 CNS = tested on: SF-539 CNS
HCC-2998 colon = tested on: HCC-2998 colon
OVCAR-3 ovarian = tested on: OVCAR-3 ovarian
MOLT-4 leukemia = tested on: MOLT-4 leukemia
DLD-1 colon = tested on: DLD-1 colon
SK-MEL-2 melanoma = tested on: SK-MEL-2 melanoma
OVCAR-4 ovarian = tested on: OVCAR-4 ovarian
COLO 205 colon = tested on: COLO 205 colon
KM12 colon = tested on: KM12 colon
CCRF-CEM leukemia = tested on: CCRF-CEM leukemia
HOP-18 NSCLC = tested on: HOP-18 NSCLC
UACC-62 melanoma = tested on: UACC-62 melanoma
SK-MEL-5 melanoma = tested on: SK-MEL-5 melanoma
SK-OV-3 ovarian = tested on: SK-OV-3 ovarian
IGROV1 ovarian = tested on: IGROV1 ovarian
A498 renal = tested on: A498 renal
OVCAR-8 ovarian = tested on: OVCAR-8 ovarian
NCI-H522 lung = tested on: NCI-H522 lung
CAKI-1 renal = tested on: CAKI-1 renal
786-0 renal = tested on: 786-0 renal
HCT-15 colon = tested on: HCT-15 colon
EKVX NSCLC = tested on: EKVX NSCLC
HT29 colon = tested on: HT29 colon
SN12C renal = tested on: SN12C renal
HCT-116 colon = tested on: HCT-116 colon
KM20L2 colon = tested on: KM20L2 colon
SNB-75 CNS = tested on: SNB-75 CNS
U251 CNS = tested on: U251 CNS
SF-268 CNS = tested on: SF-268 CNS
OVCAR-5 ovarian = tested on: OVCAR-5 ovarian
UO-31 renal = tested on: UO-31 renal
SF-295 CNS = tested on: SF-295 CNS
ACHN renal = tested on: ACHN renal
HOP-62 NSCLC = tested on: HOP-62 NSCLC
DMS 114 small cell lung = tested on: DMS 114 small cell lung
DMS 273 small cell lung = tested on: DMS 273 small cell lung
HL-60(TB) leukemia = tested on: HL-60(TB) leukemia
HOP-92 NSCLC = tested on: HOP-92 NSCLC
RXF 393 renal = tested on: RXF 393 renal
SR leukemia = tested on: SR leukemia

Work on N#C/C(=C/c1ccc2c(c1)OCO2)C(=O)c1ccccc1 yielded a TGI (NCI-H460 lung) greater than 100 µM, a TGI (UACC-257 melanoma) greater than 100 µM and a TGI (A549 NSCLC) greater than 100 µM. It also gave a TGI (NCI-H23 lung) greater than 100 µM, a TGI (K-562 leukemia) greater than 100 µM and a TGI (SNB-19 CNS) greater than 100 µM. For the same compound, the TGI (MALME-3M melanoma) was greater than 100 µM, the TGI (M14 melanoma) was greater than 100 µM and the TGI (RPMI-8226 leukemia) was greater than 100 µM. For the same compound, the TGI (M19-MEL melanoma) was greater than 100 µM, the TGI (SW-620 colon) was greater than 100 µM and the TGI (SK-MEL-28 melanoma) was greater than 100 µM. The TGI (TK-10 renal) was greater than 100 µM, the TGI (LXFL 529 NSCLC) was greater than 100 µM and the TGI (SNB-78 CNS) was greater than 100 µM. It also gave a TGI (XF 498 CNS) greater than 100 µM, a TGI (SF-539 CNS) greater than 100 µM and a TGI (HCC-2998 colon) greater than 100 µM. The TGI (OVCAR-3 ovarian) was greater than 100 µM, the TGI (MOLT-4 leukemia) was greater than 100 µM and the TGI (DLD-1 colon) was greater than 100 µM. It also gave a TGI (SK-MEL-2 melanoma) greater than 100 µM, a TGI (OVCAR-4 ovarian) greater than 100 µM and a TGI (COLO 205 colon) greater than 100 µM. The TGI (KM12 colon) was greater than 100 µM, the TGI (CCRF-CEM leukemia) was greater than 100 µM and the TGI (HOP-18 NSCLC) was greater than 100 µM. The TGI (UACC-62 melanoma) was greater than 100 µM, the TGI (SK-MEL-5 melanoma) was greater than 100 µM and the TGI (SK-OV-3 ovarian) was greater than 100 µM. It also gave a TGI (IGROV1 ovarian) greater than 100 µM, a TGI (A498 renal) greater than 100 µM and a TGI (OVCAR-8 ovarian) greater than 100 µM. For the same compound, the TGI (NCI-H522 lung) was greater than 100 µM, the TGI (CAKI-1 renal) was greater than 100 µM and the TGI (786-0 renal) was greater than 100 µM. It also gave a TGI (HCT-15 colon) greater than 100 µM, a TGI (EKVX NSCLC) greater than 100 µM and a TGI (HT29 colon) greater than 100 µM. For the same compound, the TGI (SN12C renal) was greater than 100 µM, the TGI (HCT-116 colon) was greater than 100 µM and the TGI (KM20L2 colon) was greater than 100 µM. The TGI (SNB-75 CNS) was greater than 100 µM, the TGI (U251 CNS) was greater than 100 µM and the TGI (SF-268 CNS) was greater than 100 µM. The TGI (OVCAR-5 ovarian) was greater than 100 µM, the TGI (UO-31 renal) was greater than 100 µM and the TGI (SF-295 CNS) was greater than 100 µM. The TGI (ACHN renal) was greater than 100 µM and the TGI (HOP-62 NSCLC) was greater than 100 µM.
N/C(=N\N=C\c1ccc(C(F)(F)F)cc1)NO showed a TGI (NCI-H460 lung) greater than 100 µM, a TGI (UACC-257 melanoma) greater than 100 µM and a TGI (DMS 114 small cell lung) greater than 100 µM. The TGI (A549 NSCLC) was 59.2 µM, the TGI (NCI-H23 lung) was 52.9 µM and the TGI (K-562 leukemia) was greater than 100 µM. It also gave a TGI (MALME-3M melanoma) greater than 100 µM, a TGI (M14 melanoma) of 29.2 µM and a TGI (M19-MEL melanoma) greater than 100 µM. For the same compound, the TGI (SW-620 colon) was greater than 100 µM, the TGI (SK-MEL-28 melanoma) was greater than 100 µM and the TGI (TK-10 renal) was greater than 100 µM. The TGI (LXFL 529 NSCLC) was greater than 100 µM, the TGI (DMS 273 small cell lung) was 59.9 µM and the TGI (SNB-78 CNS) was greater than 100 µM. The TGI (XF 498 CNS) was 51 µM, the TGI (SF-539 CNS) was 50.6 µM and the TGI (OVCAR-3 ovarian) was 62.9 µM. The TGI (DLD-1 colon) was greater than 100 µM, the TGI (SK-MEL-2 melanoma) was 92 µM and the TGI (OVCAR-4 ovarian) was greater than 100 µM. For the same compound, the TGI (COLO 205 colon) was 38.7 µM, the TGI (KM12 colon) was greater than 100 µM and the TGI (CCRF-CEM leukemia) was 95.5 µM. The TGI (UACC-62 melanoma) was 21.7 µM, the TGI (HL-60(TB) leukemia) was 46.3 µM and the TGI (SK-OV-3 ovarian) was greater than 100 µM. It also gave a TGI (IGROV1 ovarian) of 33.2 µM, a TGI (A498 renal) greater than 100 µM and a TGI (OVCAR-8 ovarian) of 41.2 µM. The TGI (NCI-H522 lung) was 50.4 µM, the TGI (CAKI-1 renal) was 38.1 µM and the TGI (786-0 renal) was 37.7 µM. For the same compound, the TGI (HOP-92 NSCLC) was 58.8 µM, the TGI (EKVX NSCLC) was 33.7 µM and the TGI (HT29 colon) was greater than 100 µM. It also gave a TGI (SN12C renal) greater than 100 µM, a TGI (HCT-116 colon) greater than 100 µM and a TGI (SNB-75 CNS) greater than 100 µM. For the same compound, the TGI (U251 CNS) was 87.3 µM, the TGI (SF-268 CNS) was 61 µM and the TGI (RXF 393 renal) was greater than 100 µM. It also gave a TGI (SF-295 CNS) greater than 100 µM, a TGI (SR leukemia) greater than 100 µM and a TGI (ACHN renal) of 25.6 µM. The TGI (HOP-62 NSCLC) was 55 µM.
